Data from patent US12550894B2, “Insecticidal formulation for vector and pest control with increased contact efficacy” (priority 2018, dated 2026).

Columns and labels:
Experiment in all cases: Long term contact efficacy against mosquitos (example 12)
Assay type in all cases: in vivo
Conditions in all cases: glazed tiles, 1 day after treatment
Anopheles funestus = system: Anopheles funestus
Description: (§1) Glazed tiles have been treated with the WP 10 formulations as described in example 9 based on 4-[(5S)-5-(3,5-dichloro-4-fluorophenyl)-5-(trifluoromethyl)-4,5-dihydro-1,2-oxazol-3-yl]-N-[(4R)-2-ethyl-3-oxo-1,2-oxazolidin-4-yl]-2-methylbenzamide as described in Example 4 and then stored at ambient conditions. […] The contact bioassays have been conducted as outlined in example 9.

Culex quinque fasciatus = system: Culex quinque fasciatus
Description: as §1

Aedes Aegypti = system: Aedes Aegypti
Description: as §1

Structure (SMILES): CCN1OC[C@@H](NC(=O)c2ccc(C3=NO[C@@](c4cc(Cl)c(F)c(Cl)c4)(C(F)(F)F)C3)cc2C)C1=O [Reference crystalline spray, 4-[(5S)-5-(3,5-dichloro-4-fluorophenyl)-5-(trifluoromethyl)-4,5-dihydro-1,2-oxazol-3-yl]-N-[(4R)-2-ethyl-3-oxo-1,2-oxazolidin-4-yl]-2-methylbenzamide]
- Mortality [%] Anopheles funestus 24 h (Anopheles funestus; 0.8 mg a.i./m^2): 0%
- Mortality [%] Anopheles funestus 24 h (Anopheles funestus; 4 mg a.i./m^2): 30%
- Mortality [%] Anopheles funestus 24 h (Anopheles funestus; 20 mg a.i./m^2): 90%
- Mortality [%] Culex quinque fasciatus 24 h (Culex quinque fasciatus; 0.8 mg a.i./m^2): 25%
- Mortality [%] Culex quinque fasciatus 24 h (Culex quinque fasciatus; 4 mg a.i./m^2): 88%
- Mortality [%] Culex quinque fasciatus 24 h (Culex quinque fasciatus; 20 mg a.i./m^2): 100%
- Mortality [%] Aedes Aegypti 24 h (Aedes Aegypti; 0.8 mg a.i./m^2): 0%
- Mortality [%] Aedes Aegypti 24 h (Aedes Aegypti; 4 mg a.i./m^2): 89%
- Mortality [%] Aedes Aegypti 24 h (Aedes Aegypti; 20 mg a.i./m^2): 100%
